Like-named read-outs stand apart in the source and are kept apart here.
Assays:
HIV-1 = system: HIV-1; design: method as in PMID 32229336, PMID 21561135, PMID 33172265, PMID 34445872; settings: other tiglianes from the literature; ref [25],[26],[27],[28],[29]; read-out: IC50 anti-HIV-1 activity; cited from earlier work
HIV-1 NL4.3 = experiment: anti-HIV replication assay, HIV-1 NL4.3 in MT-4 cells (MTS/PES viability readout); assay type: cell-based
Procedure: (§1) The MT-4 cell line was a kind gift from Dr. L. Montagner (at that time at the Pasteur Institute; Paris, France). This cell line was cultured in RPMI medium (Thermo Fisher Scientific, Waltham, MA, USA) containing 10% fetal bovine serum (FBS; Thermo Fisher Scientific, Waltham, MA, USA) and 2 mM L-glutamine (Thermo Fisher Scientific, Waltham, MA, USA).
(§2) The HIV-1 strain NL4.3 (X4) and HIV-2 strain ROD (X4/R5) were obtained from the National Institute of Allergy and Infectious Disease AIDS program (Bethesda, MD, USA) and the Medical Research Council (MRC, London, UK), respectively. The HIV-1 strain HE (X4/R5) was originally isolated from a AIDS patient and was routinely cultured in MT-4 cells. The 50% tissue culture infectious doses of the virus stocks were used in the infection assays.
(§3) To determine the anti-HIV-activity of the compounds, MT-4 cells (5 × 10^4 cells) were treated with 5-fold dilutions of the compounds for 30 min at 37 °C, 5% CO2 in 96-well-plates. After 30 min, cells were infected with 100 TCID50 (tissue culture infective dose 50%) HIV-1 (NL4.3) or HIV-2 (ROD) virus stocks. After five days of incubation (37 °C, 5% CO2), the cytopathic effect was checked microscopically, and cell viability was evaluated using the MTS/PES-based CellTiter 96 Aqueous One Solution Cell Proliferation assay (Promega Madison, WI, USA). Absorbance at 490 nm was measured using the VersaMax ELISATM microplate reader (Molecular Devices) and analyzed with the SoftMax Pro software (Molecular Devices, Version 4.0, www.moleculardevices.com, accessed on 10 January 2015). The IC50-values were calculated based on the absorbance signals measured in the negative (i.e., untreated and uninfected cells) and positive (i.e., untreated virus-infected cells) control samples.

HIV-2 ROD = experiment: anti-HIV replication assay, HIV-2 ROD in MT-4 cells (MTS/PES viability readout); assay type: cell-based; settings: Human immunodeficiency virus 2, MT4, 120 h, read-out: IC50 HIV-2
Procedure: as §1, §2, §3

[1] = cellular toxicity in uninfected MT-4 cells (MTS method); assay type: cell-based; settings: human
Procedure: as §1, §3
The CC50 or 50% cellular cytoxic concentration of compounds was determined from the reduction of viability of uninfected MT-4 cells or PBMCs exposed to the compounds, as measured by the MTS method described above.

[2] = Human immunodeficiency virus 1, MT4, 120 h, read-out: IC50 HIV-1
[3] = Human immunodeficiency virus 1, MT4, read-out: IC50 values, anti-HIV activity

IC50 (HIV-1 NL4.3; Human immunodeficiency virus 1, MT4, 120 h, HIV-1 NL4.3 replication in MT-4 cells, five days, read-out: IC50 HIV-1) [µM]	IC50 (HIV-2 ROD; HIV-2 ROD replication in MT-4 cells, five days) [µM]	SMILES	IC50 (HIV-1) [µM]	CC50 at 5 days [1] [µM]	IC50 (HIV-1 NL4.3; [2]) [µM]	IC50 (HIV-2 ROD) [µM]	IC50 (HIV-1 NL4.3; [3]) [µM]
		CCCCCCCC(=O)O[C@@]12[C@H](OC(=O)c3ccccc3)[C@@H](C)[C@]3(O)[C@@H]4C=C(C)C(=O)[C@@]4(O)[C@H](O)C(CO)=C[C@H]3[C@@H]1C2(C)C [stelleracin C]	0.0023				
0.008 ± 0.002	0.0075 ± 0.0005	c1cc(CN2CCCNCCNCCCNCC2)ccc1CN1CCCNCCNCCCNCC1 [AMD3100, reference compound]		> 10			
		CC(=O)O[C@@]12[C@H](OC(=O)c3ccccc3)[C@@H](C)[C@]3(O)[C@@H]4C=C(C)C(=O)[C@@H]4CC(C)=C[C@H]3[C@@H]1C2(C)C [Compound 1, 13α-Acetyloxy-12β-benzoyloxy-4-epi-4,20-dideoxyphorbol]		42	> 42	9.4 ± 1.4	
		C[C@H](Cn1cnc2c(N)ncnc21)OCP(=O)(O)O [PMPA, reference compound]		> 100	2.4 ± 0.7	0.7 ± 0.5	
		CC(=O)O[C@@H]1[C@@H](C)[C@]2(O)[C@@H]3C=C(C)C(=O)[C@@H]3CC(C)=C[C@H]2[C@@H]2C(C)(C)[C@]12OC(=O)CC(C)C [Compound 4, 12β-Acetyloxy-13α-isovaleryloxy-4-epi-4,20-dideoxyphorbol]		52	> 52	> 52	
		CC1=C[C@H]2[C@@H]3C(C)(C)[C@]3(OC(=O)CC(C)C)[C@H](OC(=O)c3ccccc3)[C@@H](C)[C@]2(O)[C@@H]2C=C(C)C(=O)[C@@H]2C1 [Compound 3, 12β-Benzoyloxy-13α-isovaleryloxy-4-epi-4,20-dideoxyphorbol]		17.6 ± 0.3	> 18	> 18	
		CCCCCCCCCCCCCCCC(=O)O[C@@]12C[C@@H](C)[C@@]3(O)[C@@H](C=C(CO)C[C@]4(O)C(=O)C(C)=C[C@@H]34)[C@@H]1C2(C)C [12-deoxyphorbol-13-hexadecanoate]	0.022				
		CC1=C[C@H]2[C@@H]3C(C)(C)[C@]3(OC(=O)C(C)C)[C@H](OC(=O)c3ccccc3)[C@@H](C)[C@]2(O)[C@@H]2C=C(C)C(=O)[C@@H]2C1 [Compound 5, 12β-benzoyloxy-13α-isobutanoyloxy-4-epi-4,20-dideoxyphforbol]		33.5 ± 0.4	> 34	4.6 ± 2.3	
		CC(=O)O[C@@]12[C@H](OC(=O)c3ccccc3)[C@@H](C)[C@]3(O)[C@@H]4C=C(C)C(=O)[C@H]4CC(C)=C[C@H]3[C@@H]1C2(C)C [Compound 2, 13α-Acetyloxy-12β-benzoyloxy-4,20-dideoxyphorbol]		94	7.5 ± 0.2	1.7 ± 1.3	1.1 to 7.47
		CC(=O)O[C@@H]1[C@@H](C)[C@]2(O)[C@@H]3C=C(C)C(=O)[C@@H]3CC(C)=C[C@H]2[C@@H]2C(C)(C)[C@]12OC(=O)C(C)C [Compound 6, 12β-acetyloxy-13α-isobutanoyloxy-4-epi-4,20-dideoxyphorbol]		101	> 101	> 101	
		CC(=O)OCC1=C[C@H]2[C@@H]3C(C)(C)[C@]3(OC(C)=O)[C@H](OC(=O)c3ccccc3)[C@@H](C)[C@]2(O)[C@@H]2C=C(C)C(=O)[C@@H]2C1 [Compound 8, 13α,20-diacetylohy-12β-benzoyloxy-4-epi-4-deoxyphorbol]		20.8 ± 5.6	3.3 ± 1.8	1.1 ± 0.8	1.1 to 7.47

Reference: PMC11990108, “Anti-HIV Activity of Tigliane Derivatives from Euphorbia nicaeensis Roots” (Molecules, 2025)
